Test results: patent publication US9597311B2, “Suppression and prevention of tumors” (priority 2005, dated 2017)

Experiment: Additional benefits of taking betaine in people
Format: in vivo
Excerpt: While the main benefit of a person or pet taking vitamin C and betaine in combination is the prevention/suppression of tumors, as mentioned before, additional benefits can be obtained depending upon the levels taken. Betaine is known to improve cardiovascular health, and can benefit people with fatty deposits in the liver. […] After only a few weeks of taking the betaine, cholesterol levels are reduced and the ability to lose weight is improved.

Which “tendency to be light headed when getting up after prolonged squatting or kneeling” value (after a few doses at about one and a half to about three grams per day, especially older people) does the source give for `C[N+](C)(C)CC(=O)[O-]` [betaine, trimethylglycine] here?
Its value is “considerably lessened”.

What about the cholesterol levels (after only a few weeks of taking the betaine) of the same compound?
The cholesterol levels was “reduced”.
